{
  "source": "patent US20260199365A1",
  "about": "“BIS-SULFONAMIDE SHIP1 ACTIVATORS” (The Research Foundation for the State University of New York, priority 2022, published 2026)",
  "key": {"[1]": {"molecular_target": "T1, recombinant human truncated SHIP1 (tSHIP1) (Homo sapiens, UniProt Q92835)", "T1 construct": "tSHIP1 (SHIP1, residues 397-864) was amplified from pET24TEV-tSHIP1; His tag; made in house; host or cells: E. coli BL21", "T1 sequence (Q92835 397-864)": "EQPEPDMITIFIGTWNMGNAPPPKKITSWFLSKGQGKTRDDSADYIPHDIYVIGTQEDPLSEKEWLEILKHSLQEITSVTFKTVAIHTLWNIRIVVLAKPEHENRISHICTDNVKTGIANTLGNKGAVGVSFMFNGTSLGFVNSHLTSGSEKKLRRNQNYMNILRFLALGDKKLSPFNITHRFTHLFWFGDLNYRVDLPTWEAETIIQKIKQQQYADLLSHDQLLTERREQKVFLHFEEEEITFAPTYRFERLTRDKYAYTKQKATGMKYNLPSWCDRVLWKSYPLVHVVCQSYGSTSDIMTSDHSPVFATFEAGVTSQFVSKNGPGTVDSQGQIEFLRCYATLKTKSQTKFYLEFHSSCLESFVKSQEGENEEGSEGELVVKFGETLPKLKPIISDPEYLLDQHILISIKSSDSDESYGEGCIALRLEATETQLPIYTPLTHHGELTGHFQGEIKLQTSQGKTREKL", "assay": "Malachite Green Phosphatase Release Assay (SHIP1 phosphatase activity)", "type": "biochemical", "conditions": "for SHIP1 activation, increase in the malachite green assay: initial testing", "method_in_brief": "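Truncated SHIP1 (residues 397-864, His-tagged, E. coli-expressed) was preincubated 2 min at room temperature with compound in pH 7.4 Hepes buffer with MgCl2/EDTA. 100 μM PI(3,4,5)P3-diC8 was then added and the reaction run 20 min at 37 °C. Phosphate release was read with malachite green at 620 nm, as % of DMSO control activity.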"}, "[2]": {"assay": "Half-life in vivo", "conditions": "mice", "excerpt": "This is believed to be due to rapid oxidation of the sulfur functional groups in K306 by cytochrome P450 enzymes which are prevalent in mice. […] The thiophene is still a concern, however, as this heterocycle is known to undergo oxidation by CYP enzymes and can lead to toxic metabolites."}},
  "data": [
    {"smiles": "Cc1sc(S(=O)(=O)N2CCSCC2)cc1NC(=O)CNS(=O)(=O)c1ccc(F)cc1", "note": "[Compound K306, 2-(4-Fluorobenzenesulfonamido)-N-[2-methyl-5-(thiomorpholine-4-sulfonyl)thiophen-3-yl]acetamide]", "values": [
      {"measurement": "Phosphatase activity in the Malachite Green Assay, analog concentration 125 μM", "setting": "[1]; 125 μM analog, 100 μM PI(3,4,5)P3-diC8 substrate, normalized to vehicle control (DMSO) = 100%", "result": 95, "unit": "%"},
      {"measurement": "Phosphatase activity in the Malachite Green Assay, analog concentration 250 μM", "setting": "[1]; 250 μM analog, 100 μM PI(3,4,5)P3-diC8 substrate, normalized to vehicle control (DMSO) = 100%", "result": 106, "unit": "%"},
      {"measurement": "Phosphatase activity in the Malachite Green Assay, analog concentration 500 μM", "setting": "[1]; 500 μM analog, 100 μM PI(3,4,5)P3-diC8 substrate, normalized to vehicle control (DMSO) = 100%, >100% activation, <100% inhibition", "result": 133, "unit": "%"},
      {"measurement": "SHIP1 activation, increase in the malachite green assay", "setting": "[1]; tested at 250 μM", "result": 6, "unit": "%"},
      {"measurement": "SHIP1 activation, increase in the malachite green assay", "setting": "[1]; tested at 500 μM", "result": 33, "unit": "%"},
      {"measurement": "Half-life in vivo", "setting": "[2]", "result": "short-half life in vivo"}
    ]}
  ]
}
